# Experiments:
# [1] = system: PC-3 human prostate tumor; experiment: GFP PC3 prostate orthotopic model; format: in vivo, mice
# [2] = Repeat dose GLP study with dogs; format: in vivo
# Description: These changes were reversible.
# [3] = system: H460 human non small cell cancer (NSCLC) cells; experiment: H460 tumor excision clonogenic assay (surviving fraction) under different oxygen levels; format: in vivo, mice; conditions: single 50 mg/kg i.v., tumors removed 24 h post treatment
# Method: H460 human non small cell cancer (NSCLC) cells were prepared in 30% or 50% matrigel in PRIM medium. Then 2×10^6 cells suspended in 50% matrigel were implanted subcutaneously in the right flank in 35 mice (0.2 mL/mouse), 0.5×10^6 cells suspended in 30% matrigel were similarly implanted in 30 mice. Mice bearing similar sized tumors, preferably ˜300 mm^3 were selected for TH302 administration. TH302 was formulated in saline and a single dose administered intravenously at 50 mg/kg.
# The mice were placed in 95% and 10% O2 chamber for 30 min before the dosing and returned to the chamber for 2 hours immediately after treatment. Twenty-four hours post treatment, tumors were removed. The tumor tissue was minced and obtain single cells were obtained by digesting the minced tissue with an enzyme cocktail for 15 min at 37° C. with stirring, and filtering through a 40 μm sterile mash. Cell numbers were counted by a coulter counter. After a serial dilution, the ells were placed in a 60 or 100 mm Petri dish and incubated at 37° C. for 8 to 10 days for the colonies to form. The colonies were counted after stained with crystal violet (0.25% in 95% ethanol). The plating efficiency (PE) was calculated by dividing the number of colonies formed by the number of cells seeded. The surviving fraction (SF) was calculated by dividing as the PE of treated cells by PE of the cells from saline control.
# [4] = Single-dose toxicity in rats; format: in vivo
# Method: A single-dose of TH302 was administered to rats and dogs over 30 min in order to achieve a rapid increase to relatively high drug levels. Rats were administered 50, 100, and 200 mg/kg, and dogs at 8, 16 and 32 mg/kg of TH302. […] These changes at the lowest toxicity level were fully reversible within 2 weeks.
# [5] = Pharmacokinetics in CD-1 mice; format: in vivo; conditions: male, CD-1, mouse, plasma, ip, 50 mg/kg, 50 mg/kg i.p., read-out: terminal half-lives (t1/2)
# Method: Pharmacokinetic studies were performed in male CD-1 (50 mg/kg i.p. or orally (p.o.)) or female nude mice (50 mg/kg i.v. or i.p.), male Sprague-Dawley rats (1, 5, 20 and 50 mg/kg i.v. and 100 mg/kg, p.o.), beagle dogs (20 mg/kg, i.v.) and cynomologus monkeys (20 mg/kg i.v.). Plasma TH302 concentrations were analyzed using a LC/MS method and the pharmacokinetic parameters computed using a noncompartmental method. Interspecies scaling was performed according to standard methods.
smiles,measurement,setting,value
Cn1c(COP(=O)(NCCBr)NCCBr)cnc1[N+](=O)[O-] [TH302],reduction in tumor volume,[1]; compared to final measurements in the vehicle group (day 31),84%
same,tumor growth delay (TGD),"[1]; single agent, Taxotere 12 mg/kg once a week for two weeks",16 days
same,human equivalent dose of the minimally toxic dose,[2]; 8 mg/kg dog dose divided by 1.8,about 4.5 mg/kg
same,minimally toxic dose,[2]; dog,8 mg/kg
same,bone marrow finding at the high dose level,"[2]; dogs, 16 mg/kg repeat dose",hypocellularity was also reported in the bone marrow
same,hematologic findings,"[2]; dogs, 4, 8, and 16 mg/kg repeat dose, particularly at the high dose level",leucopenia and neutropenia were evident
same,reversibility of changes,"[2]; dogs, repeat dose",reversible
same,mean surviving fraction (SF),[3]; mice breathing 10% O2,2.58%
same,mean surviving fraction (SF),[3]; mice breathing 21% O2,5.76%
same,mean surviving fraction (SF),[3]; mice breathing 95% O2,50.38%
same,affected organs at the highest dose level,[4]; 200 mg/kg single dose,"bone marrow, kidney, thymus and intestine"
same,lethality,"[4]; single dose over 30 min, highest dose 200 mg/kg",lethality was observed
same,primary findings at the lowest toxicity level,[4]; single dose study,reduction in white blood cell counts accompanied only by moderate weight loss in male rats
same,time to full reversal of changes at the lowest toxicity level,[4]; single dose study,≤ 2 weeks
same,species specific toxicity at the highest dose,"[4]; single dose, 200 mg/kg",rat adipose and spleen
same,half-life,[5],7.9 min

# — patent US8552048B2, “Phosphoramidate alkylator prodrugs for the treatment of cancer” (Threshold Pharmaceuticals, Inc., priority 2006, dated 2013)
